In article PMC9821907, “Synthesis and Antiprotozoal Activity of Azabicyclo-Nonane Pyrimidine Hybrids” (Molecules, 2022):
Read-outs that look alike come from different tables or passages of the source.

Experiments:
[1] = system: T. brucei rhodesiense STIB900; experiment: In vitro microplate resazurin assay against T. brucei rhodesiense; assay type: cell-based; details: Trypanosoma brucei, read-out: T. brucei rhodesiense STIB900 IC50
Procedure: (§1) Compounds were tested for their activities against Plasmodium falciparum NF54 (sensitive to chloroquine) and Trypanosoma brucei rhodesiense STIB900, via serial dilution assays. Furthermore, selected compounds were tested against the K1 strain of Plasmodium falciparum (resistant against chloroquine, sulfadoxine and pyrimethamine). Their cytotoxicity was determined with rat skeletal myoblasts (L-6 cells).
Minimum essential medium (50 µL) supplemented with 25 mM HEPES, 1g/L additional glucose, 1% MEM non-essential amino acids (100×), 0.2 mM 2-mercaptoethanol, 1mM Na-pyruvate and 15% heat-inactivated horse serum was added to each well of a 96-well microtiter plate. Serial drug dilutions of eleven 3-fold dilution steps covering a range from 100 to 0.002 μg/mL were prepared. Then 4 × 10^3 bloodstream forms of T. b. rhodesiense STIB 900 in 50 µL was added to each well and the plate incubated at 37 °C under a 5 % CO2 atmosphere for 70 h. Next, 10 µL resazurin solution (resazurin, 12.5 mg in 100 mL double-distilled water) was added to each well and incubation continued for a further 2–4 h. Then the plates were read with a Spectramax Gemini XS microplate fluorometer (Molecular Devices Cooperation, Sunnyvale, CA, USA) using an excitation wave length of 536 nm and an emission wave length of 588 nm. Data were analyzed with the graphic programme Softmax Pro (Molecular Devices Cooperation, Sunnyvale, CA, USA), which calculated IC50 values by linear regression and 4-parameter logistic regression from the sigmoidal dose inhibition curves. Melarsoprol (Arsobal Sanofi-Aventis, received from WHO) was used as control.

[2] = system: P. falciparum K1; experiment: In vitro microplate 3H-hypoxanthine incorporation assay against P. falciparum K1; assay type: cell-based, Plasmodium falciparum
Procedure: as §1
(§2) In vitro activity against erythrocytic stages of P. falciparum was determined using a ^3H-hypoxanthine incorporation assay using the drug sensitive NF54 strain [27] or the chloroquine- and pyrimethamine-resistant K1 strain [28]. Compounds were dissolved in DMSO at 10 mg/mL and further diluted in medium before being added to parasite cultures incubated in RPMI 1640 medium without hypoxanthine, supplemented with HEPES (5.94 g/L), NaHCO3 (2.1 g/L), neomycin (100 U/mL), Albumax® (5 g/L) and washed human red cells A+ at 2.5% haematocrit (0.3% parasitaemia). Serial drug dilutions of eleven 3-fold dilution steps covering a range from 100 to 0.002 μg/mL were prepared. The 96-well plates were incubated in a humidified atmosphere at 37 °C; 4% CO2, 3% O2, 93% N2. After 48 h, 0.05 mL of ^3H-hypoxanthine (= 0.5 μCi) was added to each well of the plate. The plates were incubated for a further 24 h under the same conditions. The plates were then harvested with a Betaplate™ cell harvester (Wallac, Zurich, Switzerland), and the red blood cells transferred onto a glass fibre filter then washed with distilled water. The dried filters were inserted into a plastic foil with 10 mL of scintillation fluid, and counted in a Betaplate™ liquid scintillation counter (Wallac, Zurich, Switzerland). IC50 values were calculated from sigmoidal inhibition curves by linear regression using Microsoft Excel. Chloroquine (Sigma C6628) was used as control.

[3] = in vitro; details: rat
Procedure: as §1
Assays were performed in 96-well microtiter plates, each well containing 0.1 mL of RPMI 1640 medium supplemented with 1% L-glutamine (200 mM) and 10% fetal bovine serum, and 4000 L-6 cells (a primary cell line derived from rat skeletal myoblasts, ATCC CRL-1458™). Serial drug dilutions of eleven 3-fold dilution steps covering a range from 100 to 0.002 μg/mL were prepared. After 70 h of incubation the plates were inspected under an inverted microscope to assure growth of the controls and sterile conditions. Then, 0.01 mL resazurin solution (resazurin, 12.5 mg in 100 mL double-distilled water) was added to each well and the plates incubated for another 2 h. The plates were read with a Spectramax Gemini XS microplate fluorometer (Molecular Devices Cooperation, Sunnyvale, CA, USA) using an excitation wave length of 536 nm and an emission wave length of 588 nm. The IC50 values were calculated by linear regression from the sigmoidal dose inhibition curves using SoftmaxPro software (Molecular Devices Cooperation, Sunnyvale, CA, USA). Podophyllotoxin (Sigma P4405) was used as control.

[4] = system: P. falciparum NF54; experiment: In vitro microplate 3H-hypoxanthine incorporation assay against P. falciparum NF54; assay type: cell-based; details: Plasmodium falciparum
Procedure: as §1, §2

[5] = bloodstream forms, average of four determinations
[6] = Plasmodium falciparum, K1, K1 strain, resistant to chloroquine, sulfadoxine and pyrimethamine, average of four determinations, read-out: P. falciparum K1 IC50
[7] = NF54 strain, sensitive to chloroquine and pyrimethamine, average of four determinations, read-out: P. falciparum NF54 IC50
[8] = K1 strain, resistant to chloroquine, sulfadoxine and pyrimethamine, average of four determinations, read-out: P. falciparum K1 IC50

Row | SMILES | IC50 [1, 5] | IC50 [2, 6] | IC50 at 72 h [3] | IC50 [4, 7] | IC50 [1] | IC50 [2, 8] | IC50 ([2]; Plasmodium falciparum, K1, read-out: P. falciparum K1 IC50) | IC50 ([4]; NF54, read-out: P. falciparum NF54 IC50)
1 | Cc1cc(N2CC3C(c4ccccc4)CC(N4CCCC4)(CC3c3ccccc3)C2)nc(N2CCCC2)n1 (racemic) [Compound 20, rac-(7R,8R)-3-[6-methyl-2-(pyrrolidin-1-yl)pyrimidin-4-yl]-6,9-diphenyl-1-(pyrrolidin-1-yl)-3-azabicyclo[3.2.2]nonane] | 764 ± 335 nM | 87 ± 47 nM | 4160 ± 39 nM | 87 ± 59 nM |  |  |  | 
2 | Cc1cc(N2CC3C(c4ccccc4)CC(N4CCCCC4)(CC3c3ccccc3)C2)nc(N2CCCCC2)n1 (racemic) [Compound 23, rac-(7R,8R)-3-[6-methyl-2-(piperidin-1-yl)pyrimidin-4-yl]-6,9-diphenyl-1-(piperidin-1-yl)-3-azabicyclo[3.2.2]nonane] | 3380 ± 9 nM | 570 ± 12 nM | 16000 ± 1240 nM | 607 ± 10 nM |  |  |  | 
3 | Cc1cc(N2CC3C(c4ccccc4)CC(N4CCCC4)(CC3c3ccccc3)C2)nc(N2CCCCC2)n1 (racemic) [Compound 24, rac-(7R,8R)-3-[6-methyl-2-(piperidin-1-yl)pyrimidin-4-yl]-6,9-diphenyl-1-(pyrrolidin-1-yl)-3-azabicyclo[3.2.2]nonane] | 1450 ± 116 nM |  | 61800 ± 27900 nM | 3790 ± 163 nM |  |  |  | 
4 | Cc1cc(N2CC3C(c4ccccc4)CC(N4CCCCC4)(CC3c3ccccc3)C2)nc(N2CCCC2)n1 (racemic) [Compound 19, rac-(7R,8R)-3-[6-methyl-2-(pyrrolidin-1-yl)pyrimidin-4-yl]-6,9-diphenyl-1-(piperidin-1-yl)-3-azabicyclo[3.2.2]nonane] | 3160 ± 1060 nM | 694 ± 268 nM | 58400 ± 22900 nM | 5290 ± 134 nM |  |  |  | 
5 | Nc1nc(N)nc(Nc2ccc([As]3SCC(CO)S3)cc2)n1 (stereo not shown) [MEL, melarsoprol, reference compound] |  |  | 7780 nM |  | 10 nM |  |  | 
6 | Nc1cc(N2CC3C(c4ccccc4)CC(N4CCCC4)(CC3c3ccccc3)C2)nc(N)n1 (racemic) [Compound 12] | 946 ± 374 nM | 172 ± 51 nM | 11100 ± 836 nM | 33 ± 16 nM |  |  |  | 
7 | Cc1cc(N2CCC3(N4CCCC4)C[C@H](c4ccccc4)C2[C@@H](c2ccccc2)C3)nc(Cl)n1 (racemic) [Compound 14, rac-(7R,8R)-2-(2-chloro-6-methylpyrimidin-4-yl)-7,8-diphenyl-5-(pyrrolidin-1-yl)-2-azabicyclo[3.2.2]nonane] | 1640 ± 22 nM | 366 ± 95 nM | 9620 ± 1100 nM | 1040 ± 302 nM |  |  |  | 
8 | Cc1cc(N2CCC3(N4CCCC4)C[C@H](c4ccccc4)C2[C@@H](c2ccccc2)C3)nc(N2CCCCC2)n1 (racemic) [Compound 22, rac-(7R,8R)-2-[6-methyl-2-(piperidin-1-yl)pyrimidin-4-yl]-7,8-diphenyl-5-(pyrrolidin-1-yl)-2-azabicyclo[3.2.2]nonane] | 107 ± 49 nM |  | 6730 ± 3080 nM | 406 ± 15 nM |  |  |  | 
9 | Nc1cc(N2CCC3(N4CCCC4)CC(c4ccccc4)C2C(c2ccccc2)C3)nc(N)n1 (racemic) [Compound 10, rac-6-[(7R,8R)-7,8-diphenyl-5-(pyrrolidin-1-yl)-2-azabicyclo[3.2.2]nonan-2-yl]pyrimidine-2,4-diamine] | 853 ± 16 nM | 216 ± 37 nM | 11260 ± 33 nM | 79 ± 1 nM |  |  |  | 
10 | Cc1cc(N2CC3C(c4ccccc4)CC(N4CCCCC4)(CC3c3ccccc3)C2)nc(N)n1 (racemic) [Compound 7] | 573 ± 132 nM | 51 to 94 nM | 8000 ± 1890 nM | 24 ± 4 nM |  | 51 ± 24 nM |  | 
11 | Cc1cc(N2CC3C(c4ccccc4)CC(N4CCCCC4)(CC3c3ccccc3)C2)nc(Cl)n1 (racemic) [Compound 15, rac-(7R,8R)-3-(2-chloro-6-methylpyrimidin-4-yl)-6,9-diphenyl-1-(piperidin-1-yl)-3-azabicyclo[3.2.2]nonane] | 9510 ± 914 nM | 2080 ± 430 nM | 27200 ± 11800 nM | 1490 ± 784 nM |  |  |  | 
12 | Cc1cc(N2CCC3(N4CCCCC4)CC(c4ccccc4)C2C(c2ccccc2)C3)nc(N)n1 (racemic) [Compound 5, rac-4-[(7R,8R)-7,8-diphenyl-5-(piperidin-1-yl)-2-azabicyclo[3.2.2]nonan-2-yl]-6-methylpyrimidin-2-amine] | 3310 ± 235 nM | 140 ± 33 nM | 10600 ± 1940 nM | 212 ± 12 nM |  |  |  | 
13 | Cc1cc(N2CCC3(N4CCCCC4)C[C@H](c4ccccc4)C2[C@@H](c2ccccc2)C3)nc(N2CCCC2)n1 (racemic) [Compound 17, rac-(7R,8R)-2-[6-methyl-2-(pyrrolidin-1-yl)pyrimidin-4-yl]-7,8-diphenyl-5-(piperidin-1-yl)-2-azabicyclo[3.2.2]nonane] | 575 ± 33 nM |  | 23200 ± 9930 nM | 617 ± 8 nM |  |  |  | 
14 | CCN(CC)CCCC(C)Nc1ccnc2cc(Cl)ccc12 (stereo not shown) [CQ, chloroquine, reference compound] |  |  | 90900 nM |  |  |  | 163 nM | 3.9 nM
15 | Cc1cc(N2CCC3(N4CCCCC4)C[C@H](c4ccccc4)C2[C@@H](c2ccccc2)C3)nc(N2CCCCC2)n1 (racemic) [Compound 21, rac-(7R,8R)-2-[6-methyl-2-(piperidin-1-yl)pyrimidin-4-yl]-7,8-diphenyl-5-(piperidin-1-yl)-2-azabicyclo[3.2.2]nonane] | 8720 ± 4200 nM |  | 104000 ± 27000 nM | 4700 ± 1180 nM |  |  |  | 
16 | Cc1cc(N2CC3C(c4ccccc4)CC(N4CCCC4)(CC3c3ccccc3)C2)nc(N)n1 (racemic) [Compound 8] | 322 ± 151 nM |  | 4480 ± 1440 nM | 62 ± 1 nM |  |  |  | 
17 | Cc1cc(N2CCC3(N4CCCC4)C[C@H](c4ccccc4)C2[C@@H](c2ccccc2)C3)nc(N2CCCC2)n1 (racemic) [Compound 18, rac-(7R,8R)-2-[6-methyl-2-(pyrrolidin-1-yl)pyrimidin-4-yl]-7,8-diphenyl-5-(pyrrolidin-1-yl)-2-azabicyclo[3.2.2]nonane] | 95 ± 32 nM | 59 ± 2 nM | 15000 ± 483 nM | 136 ± 16 nM |  |  |  | 
18 | Cc1cc(N2CCC3(N4CCCC4)CC(c4ccccc4)C2C(c2ccccc2)C3)nc(N)n1 (racemic) [Compound 6, rac-4-[(7R,8R)-7,8-diphenyl-5-(pyrrolidin-1-yl)-2-azabicyclo[3.2.2]nonan-2-yl]-6-methylpyrimidin-2-amine] | 161 nM |  | 12500 ± 3310 nM | 88 ± 57 nM |  |  |  | 
19 | Cc1cc(N2CCC3(N4CCCCC4)C[C@H](c4ccccc4)C2[C@@H](c2ccccc2)C3)nc(Cl)n1 (racemic) [Compound 13, rac-(7R,8R)-2-(2-chloro-6-methylpyrimidin-4-yl)-7,8-diphenyl-5-(piperidin-1-yl)-2-azabicyclo[3.2.2]nonane] | 1550 ± 47 nM | 567 ± 47 nM | 3100 ± 51 nM | 694 ± 18 nM |  |  |  | 
20 | Nc1cc(N2CCC3(N4CCCCC4)CC(c4ccccc4)C2C(c2ccccc2)C3)nc(N)n1 (racemic) [Compound 9, rac-6-[(7R,8R)-7,8-diphenyl-5-(piperidin-1-yl)-2-azabicyclo[3.2.2]nonan-2-yl]pyrimidine-2,4-diamine] | 1560 ± 643 nM | 51 to 94 nM | 9730 ± 661 nM | 51 ± 7 nM |  | 94 ± 4 nM |  | 
